Results reported in patent US12139473B2, “Substituted-N-heteroaryl compounds and uses thereof” (Bionomics Limited, priority 2019, dated 2024).

Target: T1, hKv3.1 (Homo sapiens, UniProt P48547)
T1 construct: expressed in transfected cells
T1 sequence (P48547 1-511): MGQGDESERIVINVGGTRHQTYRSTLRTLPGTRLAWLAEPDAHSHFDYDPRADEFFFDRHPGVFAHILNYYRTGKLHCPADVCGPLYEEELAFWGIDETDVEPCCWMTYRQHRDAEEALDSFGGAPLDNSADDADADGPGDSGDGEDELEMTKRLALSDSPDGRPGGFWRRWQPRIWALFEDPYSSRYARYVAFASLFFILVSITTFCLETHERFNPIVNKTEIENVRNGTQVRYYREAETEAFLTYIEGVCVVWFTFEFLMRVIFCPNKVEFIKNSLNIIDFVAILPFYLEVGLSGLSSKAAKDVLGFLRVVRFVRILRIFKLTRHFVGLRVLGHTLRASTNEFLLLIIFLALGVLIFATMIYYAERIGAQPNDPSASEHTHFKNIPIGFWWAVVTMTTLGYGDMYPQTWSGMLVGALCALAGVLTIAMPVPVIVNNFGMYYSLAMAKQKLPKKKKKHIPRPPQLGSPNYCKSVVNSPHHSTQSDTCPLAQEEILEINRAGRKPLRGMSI
Assay: Automated patch clamp electrophysiology (Patchliner), CHO/Kv3.1 cells
Type: cell-based
Settings: 10 μM compound, hKv3.1 in CHO-K1, whole-cell; for Kv3.1 Activity at 10 μM Potentiation (%): peak current at voltage step of −10 mV vs vehicle (0.33% DMSO); for Kv3.1 Activity at 10 μM Voltage Shift (mV): voltage shift of the IV curve at V1/2
Protocol: hKv3.1, hKv3.2, hKv3.3, and hKv3.4 were stably expressed in CHO-K1 (Chinese hamster ovary) cells and kept under constant antibiotic selection. For in vitro assays, cells were maintained in appropriate growth medium at 37° C. and 5% CO2 in a humidified incubator.
hKv3.X expressing cells were plated in T-25 flasks for 3-4 days at 37° C. (no selection antibiotic) prior to use and grown to 80% confluence. Cells were washed twice with PBS (calcium and magnesium free) and detached with a 5-minute treatment at 37° C. with 2-3 mls of Accutase®. Cells were collected, and flask was washed in CHO-SFM II media (Life Technologies Gibco), centrifuged for 2 minutes at ˜110×g and resuspended to obtain a single cell suspension of ˜2-3×10^6 cells/ml.
The intracellular solution contained the following (in mM): KCl 50, NaCl 10, KF 60, EGTA 20, HEPES 10, adjusted to pH 7.2 with KOH and an osmolarity of 285 mOsmol. Seal enhancer was purchased from Nanion (80 mM NaCl, 3 mM KCl, 10 mM MgCl2, 35 mM CaCl2), 10 mM HEPES, pH7.4, 298 mOsmol. The external solution contained (in mM): NaCl 140, KCl 4, CaCl2) 2, MgCl2 1, HEPES 10, Glucose 5, adjusted to pH7.4 and an osmolarity of 298 mOsmol.
All compounds were initially tested at 10 uM at a final DMSO concentration of 0.33%. Compounds were dissolved in dimethylsulfoxide (DMSO) at a stock concentration of 30 mM. The compound was further diluted 1:10 to give a stock concentration of 3 mM in DMSO. The final assay solution was diluted 1:300 in External solution to give a final concentration of 10 uM. For the DMSO Control Buffer 30 uL of DMSO was added to 10 mL buffer.
All electrophysiological recordings were performed at ambient temperature (21-23° C.) using automated patch clamp (Patchliner, Nanion Technologies GmbH) in the whole-cell configuration.
Cell membrane potentials were held at −80 mV, and currents were evoked by voltage steps (1000 ms duration) from −60 to +60 mV in 10 mV increments. This was performed first with vehicle (0.33% DMSO) and then with 10 uM compound, after a 3-minute incubation period. Data was taken from 4 cells per assay.
The recordings were analysed and selected using peak current amplitude (>100 pA at the −10 mV voltage step) in the absence of compound to eliminate unsuitable cells from analysis. Peak current amplitude was measured and recorded for each voltage step and data was normalised to the maximum current at +60 mV. The normalised Kv3.x currents following addition of the compound were then compared with the currents recorded prior to compound addition (vehicle control). Positive modulation was determined as % potentiation at the voltage step of −10 mV=[current (cmpd)/current (veh)]*100−100. % potentiation≥50% was considered acceptable. In addition, voltage shift of the IV curve at V1/2 was measured. V1/2 of ≥−5 mV was also considered acceptable. IV curves were plotted in GraphPad Prism (software version 6.0) and fitted with a Boltzmann equation, where V1/2 is the voltage at half-maximal activation.

Compound: CC[C@@]1(C)NC(=O)N(c2cc(Oc3ccc(C)c(OC)c3)ncn2)C1=O [Example 2, (5R)-5-ethyl-3-[6-(3-methoxy-4-methyl-phenoxy)pyrimidin-4-yl]-5-methyl-imidazolidine-2,4-dione]
- Kv3.1 Activity at 10 μM Potentiation (%): 16%
- Kv3.1 Activity at 10 μM Voltage Shift (mV): −1.9 mV

Compound: CC[C@]1(C)NC(=O)N(c2cc(Oc3ccc(C)c(OC)c3)ncn2)C1=O [Example 3, (5S)-5-ethyl-3-[6-(3-methoxy-4-methyl-phenoxy)pyrimidin-4-yl]-5-methyl-imidazolidine-2,4-dione]
- Kv3.1 Activity at 10 μM Potentiation (%): 34%
- Kv3.1 Activity at 10 μM Voltage Shift (mV): −2.1 mV

Compound: CCC1(CC)NC(=O)N(c2cc(Oc3ccc(C)c(OC)c3)ncn2)C1=O [Example 4, 3-[6-(3-methoxy-4-methyl-phenoxy)pyrimidin-4-yl]-5,5-diethyl-imidazolidine-2,4-dione]
- Kv3.1 Activity at 10 μM Potentiation (%): 25%
- Kv3.1 Activity at 10 μM Voltage Shift (mV): −0.9 mV

Compound: COc1cc(Oc2cc(N3C(=O)NC4(CCC4)C3=O)ncn2)ccc1C [Example 5, 7-[6-(3-methoxy-4-methyl-phenoxy)pyrimidin-4-yl]-5,7-diazaspiro[3.4]octane-6,8-dione]
- Kv3.1 Activity at 10 μM Potentiation (%): 35%
- Kv3.1 Activity at 10 μM Voltage Shift (mV): −3.2 mV

Compound: COc1cc(Oc2cc(N3C(=O)N[C@](C)(C(C)C)C3=O)ncn2)ccc1C [Example 8, (5R)-5-isopropyl-3-[6-(3-methoxy-4-methyl-phenoxy)pyrimidin-4-yl]-5-methyl-imidazolidine-2,4-dione]
- Kv3.1 Activity at 10 μM Potentiation (%): 48%
- Kv3.1 Activity at 10 μM Voltage Shift (mV): −3.1 mV

Compound: COc1ccccc1Oc1cc(N2C(=O)NC(C)(C)C2=O)ncn1 [Example 9, 3-[6-(2-methoxyphenoxy)pyrimidin-4-yl]-5,5-dimethyl-imidazolidine-2,4-dione]
- Kv3.1 Activity at 10 μM Potentiation (%): 22%
- Kv3.1 Activity at 10 μM Voltage Shift (mV): −2.2 mV

Compound: COc1cccc(Oc2cc(N3C(=O)NC(C)(C)C3=O)ncn2)c1 [Example 10, 3-[6-(3-methoxyphenoxy)pyrimidin-4-yl]-5,5-dimethyl-imidazolidine-2,4-dione]
- Kv3.1 Activity at 10 μM Potentiation (%): 3%
- Kv3.1 Activity at 10 μM Voltage Shift (mV): +0.4 mV

Compound: COc1ccc(Oc2cc(N3C(=O)NC(C)(C)C3=O)ncn2)cc1 [Example 11, 3-[6-(4-methoxyphenoxy)pyrimidin-4-yl]-5,5-dimethyl-imidazolidine-2,4-dione]
- Kv3.1 Activity at 10 μM Potentiation (%): 8%
- Kv3.1 Activity at 10 μM Voltage Shift (mV): −1.3 mV

Compound: COc1ccc(Oc2cc(N3C(=O)NC(C)(C)C3=O)ncn2)cc1F [Example 12, 3-[6-(3-fluoro-4-methoxy-phenoxy)pyrimidin-4-yl]-5,5-dimethyl-imidazolidine-2,4-dione]
- Kv3.1 Activity at 10 μM Potentiation (%): 13%
- Kv3.1 Activity at 10 μM Voltage Shift (mV): −0.3 mV

Compound: COc1cc(C)cc(Oc2cc(N3C(=O)NC(C)(C)C3=O)ncn2)c1 [Example 17, 3-[6-(3-methyl-5-methoxy-phenoxy)pyrimidin-4-yl]-5,5-dimethyl-imidazolidine-2,4-dione]
- Kv3.1 Activity at 10 μM Potentiation (%): 7%
- Kv3.1 Activity at 10 μM Voltage Shift (mV): −0.2 mV

Compound: COc1ccc(C)c(Oc2cc(N3C(=O)NC(C)(C)C3=O)ncn2)c1 [Example 18, 3-[6-(2-methyl-5-methoxy-phenoxy)pyrimidin-4-yl]-5,5-dimethyl-imidazolidine-2,4-dione]
- Kv3.1 Activity at 10 μM Potentiation (%): 53%
- Kv3.1 Activity at 10 μM Voltage Shift (mV): −2.7 mV

Compound: COc1c(C)cccc1Oc1cc(N2C(=O)NC(C)(C)C2=O)ncn1 [Example 19, 3-[6-(2-methoxy-3-methyl-phenoxy)pyrimidin-4-yl]-5,5-dimethyl-imidazolidine-2,4-dione]
- Kv3.1 Activity at 10 μM Potentiation (%): 15%
- Kv3.1 Activity at 10 μM Voltage Shift (mV): −1.7 mV

Compound: COc1ccc(Oc2cc(N3C(=O)NC(C)(C)C3=O)ncn2)cc1C [Example 20, 3-[6-(3-methyl-4-methoxy-phenoxy)pyrimidin-4-yl]-5,5-dimethyl-imidazolidine-2,4-dione]
- Kv3.1 Activity at 10 μM Potentiation (%): 37%
- Kv3.1 Activity at 10 μM Voltage Shift (mV): −3.3 mV

Compound: COc1cc(C)ccc1Oc1cc(N2C(=O)NC(C)(C)C2=O)ncn1 [Example 21, 3-[6-(2-methoxy-4-methyl-phenoxy)pyrimidin-4-yl]-5,5-dimethyl-imidazolidine-2,4-dione]
- Kv3.1 Activity at 10 μM Potentiation (%): 29%
- Kv3.1 Activity at 10 μM Voltage Shift (mV): −1.4 mV

Compound: Cc1ccc(Oc2cc(N3C(=O)NC(C)(C)C3=O)ncn2)cc1C#N [Example 22, 5-[6-(4,4-dimethyl-2,5-dioxo-imidazolidin-1-yl)pyrimidin-4-yl]oxy-2-methyl-benzonitrile]
- Kv3.1 Activity at 10 μM Potentiation (%): 31%
- Kv3.1 Activity at 10 μM Voltage Shift (mV): −2.3 mV

Compound: CC1(C)NC(=O)N(c2cc(Oc3cccnc3)ncn2)C1=O [Example 23, 5,5-dimethyl-3-[6-(3-pyridyloxy)pyrimidin-4-yl]imidazolidine-2,4-dione]
- Kv3.1 Activity at 10 μM Potentiation (%): 28%
- Kv3.1 Activity at 10 μM Voltage Shift (mV): −0.9 mV

Compound: Cc1ccc(Oc2cc(N3C(=O)NC(C)(C)C3=O)ncn2)cn1 [Example 24, 5,5-dimethyl-3-[6-[(6-methyl-3-pyridyl)oxy]pyrimidin-4-yl]imidazolidine-2,4-dione]
- Kv3.1 Activity at 10 μM Potentiation (%): 33%
- Kv3.1 Activity at 10 μM Voltage Shift (mV): −4.0 mV

Compound: COc1cncc(Oc2cc(N3C(=O)NC(C)(C)C3=O)ncn2)c1 [Example 25, 5,5-dimethyl-3-[6-[(5-methoxy-3-pyridyl)oxy]pyrimidin-4-yl]imidazolidine-2,4-dione]
- Kv3.1 Activity at 10 μM Potentiation (%): 6%
- Kv3.1 Activity at 10 μM Voltage Shift (mV): −0.1 mV

Compound: Cc1ccccc1Oc1cc(N2C(=O)NC(C)(C)C2=O)ncn1 [Example 26, 3-[6-(2-methylphenoxy)pyrimidin-4-yl]-5,5-dimethyl-imidazolidine-2,4-dione]
- Kv3.1 Activity at 10 μM Potentiation (%): 17%
- Kv3.1 Activity at 10 μM Voltage Shift (mV): −2.2 mV

Compound: Cc1cccc(Oc2cc(N3C(=O)NC(C)(C)C3=O)ncn2)c1 [Example 27, 3-[6-(3-methylphenoxy)pyrimidin-4-yl]-5,5-dimethyl-imidazolidine-2,4-dione]
- Kv3.1 Activity at 10 μM Potentiation (%): −17%
- Kv3.1 Activity at 10 μM Voltage Shift (mV): +2.11 mV

Compound: Cc1ccc(Oc2cc(N3C(=O)NC(C)(C)C3=O)ncn2)cc1 [Example 28, 3-[6-(4-methylphenoxy)pyrimidin-4-yl]-5,5-dimethyl-imidazolidine-2,4-dione]
- Kv3.1 Activity at 10 μM Potentiation (%): 3%
- Kv3.1 Activity at 10 μM Voltage Shift (mV): −1.1 mV

Compound: Cc1ccc(Oc2cc(N3C(=O)NC(C)(C)C3=O)ncn2)cc1C [Example 29, 3-[6-(3,4-dimethylphenoxy)pyrimidin-4-yl]-5,5-dimethyl-imidazolidine-2,4-dione]
- Kv3.1 Activity at 10 μM Potentiation (%): 10%
- Kv3.1 Activity at 10 μM Voltage Shift (mV): −1.6 mV
